Results reported in article doi:10.1101/2021.05.17.444542v1, “Structure Activity Relationship of USP5 Allosteric Inhibitors” (biorxiv, 2021).

Molecular target: T1, USP5 ZnF-UBD (USP5 171-290) (Homo sapiens, UniProt P45974)
T1 sequence (P45974 171-290): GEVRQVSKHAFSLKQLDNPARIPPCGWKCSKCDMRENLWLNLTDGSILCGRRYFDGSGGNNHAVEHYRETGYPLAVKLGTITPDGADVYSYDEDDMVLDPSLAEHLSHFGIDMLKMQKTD
Settings: FITC-ubiquitin displacement, N=1; 100 µM; inhibitor

| SMILES | % inhibition [%] |
| --- | --- |
| O=C(O)CCC(=O)c1cccc(NS(=O)(=O)c2c[nH]c3ncccc23)c1 [S1] | 40 |
| Cc1ccc(C(=O)O)cc1S(=O)(=O)Nc1cccc(C(=O)CCC(=O)O)c1 [S2] | 36 |
| CC(CC(=O)c1cccc(-c2ccc3c(c2)CCCO3)c1)C(=O)O (stereo not drawn) [S3] | 31 |
| CN(c1ccc(S(C)(=O)=O)cc1)S(=O)(=O)c1ccc(C(=O)CCC(=O)O)cc1 [S4] | 61 |
| O=C(O)CCC(=O)c1cccc(NS(=O)(=O)c2c[nH]c(C(=O)N3CCCC3)c2)c1 [S5] | 50 |
| O=C(O)CCC(=O)c1cccc(NS(=O)(=O)c2cc(F)cc(C(=O)O)c2)c1 [S6] | 3 |
| CCCn1nc(C)c(-c2ccc(OC)c(C(=O)CCC(=O)O)c2)c1C [S7] | 32 |
| Cc1ccc(OC(C)CNS(=O)(=O)c2ccc(C(=O)CCC(=O)O)cc2)cc1 (stereo not drawn) [S8] | 37 |
| O=C(O)CCC(=O)c1cccc(NS(=O)(=O)c2ccc(Cl)c(C(=O)O)c2)c1 [S9] | 26 |
